Assay results taken from patent US12064408B2, “Compounds for the treatment of obesity and methods of use thereof” (The Children's Medical Center Corporation, priority 2012, dated 2024).

Tests used:
mice = assay: Locomotor activity (Columbus Instruments Comprehensive Lab Animal Monitoring System); type: in vivo
Method: Locomotor activity was also normal in celastrol-treated mice. This is consistent with celastrol not having a toxic effect causing anorexia and weight loss, since the latter would be associated with decreased locomotor activity.
FIGS. 16A and 16B are graphs showing x (FIG. 16A) and y (FIG. 16B) direction ambulatory motion for control and celastrol in dark and light cycles. Toxicity was evaluated using Columbus Instruments Comprehensive Lab Animal Monitoring System we have measure the locomotor activity of the animals.

[1] = tested on: alanine transaminase (ALT); assay: Serum ALT by ELISA; type: in vivo; conditions: three weeks 100 μg/kg i.p., HFD-fed obese mice
Method: (§1) To investigate the effect of celastrol administration on liver function, serum levels of alanine transaminase (ALT) and aspartate transaminase (AST) were measured in mice following three weeks of celastrol treatment (100 μg/kg, i.p.). ALT and AST were measured using an enzyme-linked immunosorbent assay (ELISA) kit (from Bio Scientific).

[2] = tested on: aspartate transaminase (AST); assay: Serum AST by ELISA; type: in vivo; conditions: three weeks 100 μg/kg i.p., HFD-fed obese mice
Method: as §1

HFD-fed obese mice [3] = assay: Liver and kidney histology (H&E); type: in vivo; conditions: three weeks 100 μg/kg i.p.
[4] = weight loss products; Sources: FDA 2010, Natural Medicines Comprehensive Database 2010; cited from earlier work
HFD-fed obese mice [5] = assay: Leptin injection upon acute celastrol treatment, HFD-fed obese mice; type: in vivo
Method: (§2) It was therefore hypothesized that celastrol exerts anti-obesity effects through increasing leptin sensitivity in the brains of the HFD-fed obese mice. To test this hypothesis, leptin was administered to celastrol- or vehicle-treated HFD-fed obese animals. To avoid any possible leptin sensitizing effect of weight loss or decreased food intake created by celastrol administration, leptin injections were carried out upon acute celastrol treatment as described below.
(§3) Lean and HFD-fed obese mice were divided into four groups: 1) DMSO+saline, 2) DMSO+leptin, 3) celastrol+saline, and 4) celastrol+leptin (n=3 per group). Mice were injected (ip) with 100 μg/kg celastrol or vehicle (DMSO) one hour before dark cycle (day zero). 24 hours later, mice were injected for a second time with celastrol or DMSO (day 1), and all animals were then taken to 24 hour-fasting. On day two, at 21 hours of fasting, mice received a final injection of DMSO or celastrol. 30 minutes prior to dark cycle, at 23.5 hour of fasting, mice received a single ip injection of leptin (10 mg/kg, dissolved in saline), or saline. […] 1, 3, 6, 15, and 24-hour food intake and 24-hour body weight changes were recorded (FIG. 7A). […] This is clearly evident when food intake of the celastrol-treated mice is calculated in percent values (FIG. 7B). […]

lean mice = assay: Leptin injection upon acute celastrol treatment, lean mice; type: in vivo; conditions: 6-hour time point, leptin 10 mg/kg ip, DMSO or celastrol 100 μg/kg ip pre-treatment
Method: as §2, §3

Molecule: CC1=C(O)C(=O)C=C2C1=CC=C1[C@@]2(C)CC[C@@]2(C)[C@@H]3C[C@](C)(C(=O)O)CC[C@]3(C)CC[C@]12C [celastrol]
- locomotor activity (mice; celastrol-treated mice): normal
- x and y direction ambulatory motion counts (mice; dark and light cycles, versus control): not significantly different
- visible sign of sickness and toxicity (mice; drug treated mice): do not show any visible sign
- ALT levels [1]: decreases
- AST levels [2]: decreases
- kidney morphology (HFD-fed obese mice [3]): no detectable change

Molecule: [Cr] [Chromium]
- Safety [4]: Likely safe

Molecule: Conjugated linoleic acid [Conjugated linoleic acid (CLA)]
- Safety [4]: Possibly safe

B1: leptin: peptide hormone regulating food intake and body weight; injected ip dissolved in saline (protein, UniProt P41160 22-167, looked up)
Leptin: VPIQKVQDDTKTLIKTIVTRINDISHTQSVSAKQRVTGLDFIPGLHPILSLSKMDQTLAVYQQVLTSLPSQNVLQIANDLENLRDLLHLLAFSKSCSLPQTSGLQKPESLDGVLEASLYSTEVVALSRLQGSLQDILQQLDVSPEC
- decrease in food intake upon leptin injection (HFD-fed obese mice [5]; 6-hour time point, leptin 10 mg/kg ip, DMSO or celastrol 100 μg/kg ip pre-treatment): approximately 40%
- 24-hour body weight change (HFD-fed obese mice [5]; 24 hour ad libitum feeding period after 24-hour fasting): resistant
- decrease in food intake upon leptin injection (lean mice): approximately 40%
